According to patent publication US20260035365A1, “1H-PYRROLO[3,2-B]PYRIDINE DERIVATIVES AS IRREVERSIBLE INHIBITORS OF MUTANT EGFR FOR THE TREATMENT OF CANCER” (Bayer Aktiengesellschaft, priority 2022, published 2026):

Legend:
[1] = target: mutEGFR (D770_N771insSVD) (Homo sapiens, UniProt P00533, INS767SVD); assay: Exon20-mutant-EGFR (D770_N771insSVD) TR-FRET kinase assay; type: biochemical; details: 2 mM ATP, 15 min preincubation
Source text: Inhibitory activity of compounds of the present invention against an Epidermal Growth Factor Receptor (EGFR) with an insertion of the amino acids sequence SVD between D770 and N771 (SEQ ID No. 5) was quantified employing the TR-FRET based kinase activity assay as described in the following paragraphs.
A recombinant fusion protein of N-terminal Glutathion-S-Transferase (GST) and a fragment of human EGFR variant (amino acids R669 to A1210 with insertion of the amino acids sequence SVD between D770 and N771 (SEQ ID No. 5) (“EGFR ins SVD”), expressed in Sf9 insect cells and purified via affinity chromatography using Glutathion Sepharose as described above, was used as a kinase. As substrate for the kinase reaction the biotinylated peptide biotin-Ahx-AEEEEYFELVAKKK (C-terminus in amide form) (SEQ ID No. 6) was used which can be purchased e.g. form the company Biosynthan GmbH (Berlin-Buch, Germany).
For the assay 50 nl of a 100-fold concentrated solution of the test compound in DMSO was pipetted into either a black low volume 384 well microtiter plate or a black 1536 well microtiter plate (both Greiner Bio-One, Frickenhausen, Germany), 2 μl of a solution of EGFR in aqueous assay buffer [50 mM Hepes pH 7.0, 10 mM MgCl2, 1 mM dithiothreitol, 0.5 mM EGTA, 0.3 mM activated sodium ortho-vanadate, 0.005% (w/v) bovine serum albumin, 0.005% (v/v) Tween-20] were added and the mixture was incubated for 15 min at 22° C. to allow pre binding of the test compounds to the enzyme before the start of the kinase reaction. […] The concentration of EGFR was adjusted depending of the activity of the enzyme lot and was chosen appropriate to have the assay in the linear range, typical concentration was 15 pg/μl. The reaction was stopped by the addition of 3 μl of a solution of HTRF detection reagents (83.3 nM streptavidine-XL665 [Cisbio Bioassays, Codolet, France] and 1.67 nM PT66-Tb-Cryptate, a terbium-cryptate labelled anti-phospho-tyrosine antibody from Cisbio Bioassays [instead of the PT66 Tb cryptate PT66 Eu Chelate from Perkin Elmer can also be used]) in an aqueous EDTA-solution (133.3 mM EDTA, 0.2% (w/v) bovine serum albumin in 50 mM HEPES pH 7.5).
The resulting mixture was incubated 1 h at 22° C. to allow the binding of the biotinylated phosphorylated peptide to the streptavidine-XL665 and the PT66-Tb-Cryptate. Subsequently, the amount of phosphorylated substrate was evaluated by measurement of the resonance energy transfer from the PT66-Tb-Cryptate to the streptavidine-XL665. Therefore, the fluorescence emissions at 620 nm and 665 nm after excitation at 337 nm were measured in a HTRF reader, e.g. a Pherastar (BMG Labtechnologies, Offenburg, Germany) or a Viewlux (Perkin-Elmer). The ratio of the emissions at 665 nm and at […] was taken as the measure for the amount of phosphorylated substrate. The data were normalised (enzyme reaction without inhibitor=0% inhibition, all other assay components but no enzyme=100% inhibition).

[2] = target: mutEGFR (D770_N771insNPG, T790); assay: mutEGFR (D770_N771insNPG, T790) kinase assay; type: biochemical, human
[3] = test system: BA/F3 (insSVD) cells; assay: Ba/F3 cell survival assay (Cell Titer-Glo), EGFR-insSVD; type: cell-based; details: Mus musculus, BaF3, 48 h, without IL-3, with EGF
Description: 293T cells from ATCC were transfected with pBABEpuro expression constructs for WT EGFR or EGFR-insSVD, or EGFR-insSVD T790M, and pCL-Eco packaging vector using Fugene-6 transfection reagent from Promega. Plates were incubated at 37° C. for 48 h. Retrovirus was harvested by filtering the media supernatant through a 0.45 μm filter.
Ba/F3 cells purchased from DSMZ were grown in RPMI+10% FBS+10 ng/mL IL-3 and infected with filtered retroviral supernatant at a 1:2 dilution. Polybrene was added to a concentration of 8 μg/mL, plates were spun for 90 min, and incubated for 16 h at 37° C. 2 μg/mL puromycin was added to the infected cells 24 h after infection and cells were continually grown in the presence of puromycin and 10 ng/mL IL-3. Following stably expressing Ba/F3 cell lines were generated: Ba/F3-EGFR-WT, Ba/F3-EGFR-insSVD, Ba/F3-EGFR-insSVD T790M, (Ba/F3-vector-control).
For cell survival assays, Ba/F3 cells were grown to a density of 1-2 million cells per mL, spun down and resuspended in media without IL-3, and replated at a concentration of 200,000-500,000 cells per mL. The cells ectopically expressing WT EGFR, EGFR-insSVD, or EGFR-insSVD T790M were plated with 10 ng/mL Millipore Culture grade EGF. The cells ectopically expressing pBABEpuro empty vector were plated with 10 ng/mL IL-3.
2 days later, cells were plated in 50 μL in a 384 well plate at a concentration of 4000 cells per well for cells assayed in the absence of IL-3 and 2000 cells per well for cells assayed in the presence of IL-3. 100 nL of compound was added to each well using a 100 nL pin head, and plates were incubated at 37° C. for 48 h.
Cell viability was measured by adding 20 μL of Cell Titer-Glo Luminescent Cell Viability Reagent diluted 1:3 in PBS. Plates were sealed with Perkin Elmer Top-Seal, inverted several times to mix, and immediately centrifuged at 1000 rpm for 2 min. Plates were incubated in low light conditions for 8-10 min and luminescence was measured.

Chain of mutEGFR (D770_N771insSVD) (P00533 with tags, fused parts or gaps INS767SVD limits assumed): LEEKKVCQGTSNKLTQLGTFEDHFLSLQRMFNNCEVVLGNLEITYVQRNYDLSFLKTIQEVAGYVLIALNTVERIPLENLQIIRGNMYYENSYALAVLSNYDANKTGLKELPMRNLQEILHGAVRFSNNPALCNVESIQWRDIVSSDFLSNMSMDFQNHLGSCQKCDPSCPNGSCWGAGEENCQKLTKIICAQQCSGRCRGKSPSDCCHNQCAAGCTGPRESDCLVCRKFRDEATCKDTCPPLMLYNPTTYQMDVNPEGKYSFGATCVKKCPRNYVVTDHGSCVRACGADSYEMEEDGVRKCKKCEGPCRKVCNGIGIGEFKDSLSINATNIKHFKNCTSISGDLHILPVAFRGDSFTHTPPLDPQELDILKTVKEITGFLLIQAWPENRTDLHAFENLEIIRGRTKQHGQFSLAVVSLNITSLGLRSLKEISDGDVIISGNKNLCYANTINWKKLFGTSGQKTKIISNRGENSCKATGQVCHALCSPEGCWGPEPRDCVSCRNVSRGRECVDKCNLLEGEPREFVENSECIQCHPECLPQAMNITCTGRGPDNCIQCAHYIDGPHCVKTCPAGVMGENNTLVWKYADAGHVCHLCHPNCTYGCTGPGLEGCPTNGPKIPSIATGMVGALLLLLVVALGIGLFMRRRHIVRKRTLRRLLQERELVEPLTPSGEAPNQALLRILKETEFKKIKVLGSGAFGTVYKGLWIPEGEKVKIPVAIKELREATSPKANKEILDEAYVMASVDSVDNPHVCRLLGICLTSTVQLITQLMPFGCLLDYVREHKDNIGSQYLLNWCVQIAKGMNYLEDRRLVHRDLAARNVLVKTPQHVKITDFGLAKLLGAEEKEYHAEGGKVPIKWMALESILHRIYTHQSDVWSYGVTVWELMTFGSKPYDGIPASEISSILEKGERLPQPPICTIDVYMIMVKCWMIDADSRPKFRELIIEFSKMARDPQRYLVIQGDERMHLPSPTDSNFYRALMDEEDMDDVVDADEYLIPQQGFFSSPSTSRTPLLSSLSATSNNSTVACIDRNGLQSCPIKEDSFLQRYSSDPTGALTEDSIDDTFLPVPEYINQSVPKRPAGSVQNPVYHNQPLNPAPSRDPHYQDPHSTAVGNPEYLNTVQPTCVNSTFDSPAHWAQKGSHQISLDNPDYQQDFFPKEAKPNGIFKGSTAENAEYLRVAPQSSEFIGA
Chain of mutEGFR (D770_N771insNPG, T790) (P00533 with tags, fused parts or gaps INS770NPG limits assumed): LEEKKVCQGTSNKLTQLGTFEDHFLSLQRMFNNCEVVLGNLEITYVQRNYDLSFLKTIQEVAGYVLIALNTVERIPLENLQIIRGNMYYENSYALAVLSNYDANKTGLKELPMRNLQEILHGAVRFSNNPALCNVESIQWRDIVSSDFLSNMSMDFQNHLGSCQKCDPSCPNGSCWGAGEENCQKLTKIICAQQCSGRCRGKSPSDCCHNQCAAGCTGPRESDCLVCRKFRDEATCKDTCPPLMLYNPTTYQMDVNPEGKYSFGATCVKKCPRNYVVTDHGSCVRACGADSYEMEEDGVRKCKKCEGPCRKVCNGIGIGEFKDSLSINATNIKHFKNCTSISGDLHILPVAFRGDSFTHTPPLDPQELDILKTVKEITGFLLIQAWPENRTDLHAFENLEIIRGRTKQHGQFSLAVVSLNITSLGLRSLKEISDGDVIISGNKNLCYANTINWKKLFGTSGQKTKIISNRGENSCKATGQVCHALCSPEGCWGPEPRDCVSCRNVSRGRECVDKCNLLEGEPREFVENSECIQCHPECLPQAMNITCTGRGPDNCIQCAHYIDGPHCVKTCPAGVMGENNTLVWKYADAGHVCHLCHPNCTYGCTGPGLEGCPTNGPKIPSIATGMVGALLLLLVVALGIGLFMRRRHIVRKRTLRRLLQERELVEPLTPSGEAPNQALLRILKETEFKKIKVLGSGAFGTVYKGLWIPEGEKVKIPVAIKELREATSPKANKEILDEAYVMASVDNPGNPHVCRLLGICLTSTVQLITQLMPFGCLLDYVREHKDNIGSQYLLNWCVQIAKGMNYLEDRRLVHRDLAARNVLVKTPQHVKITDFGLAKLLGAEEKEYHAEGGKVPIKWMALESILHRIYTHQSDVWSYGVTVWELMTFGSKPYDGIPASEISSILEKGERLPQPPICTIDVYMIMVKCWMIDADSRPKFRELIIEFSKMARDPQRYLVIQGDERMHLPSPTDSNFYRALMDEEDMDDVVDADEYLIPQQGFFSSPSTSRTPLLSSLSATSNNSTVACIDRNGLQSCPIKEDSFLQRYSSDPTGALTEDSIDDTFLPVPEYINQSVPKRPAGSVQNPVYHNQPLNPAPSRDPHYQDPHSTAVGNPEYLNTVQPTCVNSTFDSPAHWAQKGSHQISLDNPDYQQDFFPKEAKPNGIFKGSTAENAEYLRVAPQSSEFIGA

Row | SMILES | IC50 [1] | IC50 [2] | IC50 [3]
1 | C=CC(=O)N1CC=C[C@H]1COc1cnccc1-c1[nH]c2cccnc2c1-c1ccccc1 [Example 115, 1-[(2S)-2-({[4-(3-phenyl-1H-pyrrolo[3,2-b]pyridin-2-yl)pyridin-3-yl]oxy}methyl)-2,5-dihydro-1H-pyrrol-1-yl]prop-2-en-1-one] | 0.281 nM | 0.875 nM | 12.2 nM
2 | C=CS(=O)(=O)N(C)CCOc1cnccc1-c1[nH]c2cccnc2c1-c1cc(CC)ccc1F [Example 67, N-[2-({4-[3-(5-ethyl-2-fluorophenyl)-1H-pyrrolo[3,2-b]pyridin-2-yl]pyridin-3-yl}oxy)ethyl]-N-methylethenesulfonamide] | 3.01 nM | 14.6 nM | 418 nM
3 | C=CC(=O)N1CCC(Oc2cnccc2-c2[nH]c3cccnc3c2-c2cccc(C(F)(F)F)c2)C1 (racemic) [Example 122, 1-{(3RS)-3-[(4-{3-[3-(trifluoromethyl)phenyl]-1H-pyrrolo[3,2-b]pyridin-2-yl}pyridin-3-yl)oxy]pyrrolidin-1-yl}prop-2-en-1-one] | 123 nM | 775 nM | 2590 nM
4 | C=CS(=O)(=O)N1CCC[C@H]1COc1cnccc1-c1[nH]c2cccnc2c1-c1ccc(F)c(OC(F)F)c1 [Example 105, 3-[3-(difluoromethoxy)-4-fluorophenyl]-2-(3-{[(2S)-1-(ethenesulfonyl)pyrrolidin-2-yl]methoxy}pyridin-4-yl)-1H-pyrrolo[3,2-b]pyridine] | 0.207 nM | 0.537 nM | 31.1 nM
5 | C=CC(=O)N(C)CCOc1cnccc1-c1[nH]c2cccnc2c1-c1cc(F)ccc1F [Example 46, N-[2-({4-[3-(2,5-difluorophenyl)-1H-pyrrolo[3,2-b]pyridin-2-yl]pyridin-3-yl}oxy)ethyl]-N-methylprop-2-enamide] | 27.3 nM | 60.5 nM | 1150 nM
6 | C/C=C/C(=O)N1CCC[C@H]1COc1cnccc1-c1[nH]c2cccnc2c1-c1ccccc1 [Example 92, (2E)-1-[(2S)-2-({[4-(3-phenyl-1H-pyrrolo[3,2-b]pyridin-2-yl)pyridin-3-yl]oxy}methyl)pyrrolidin-1-yl]but-2-en-1-one] | 3750 nM | > 20000 nM | 7050 nM
7 | C=CS(=O)(=O)N(C)CCOc1cnccc1-c1[nH]c2cccnc2c1-c1cc(F)ccc1F [Example 61, N-[2-({4-[3-(2,5-difluorophenyl)-1H-pyrrolo[3,2-b]pyridin-2-yl]pyridin-3-yl}oxy)ethyl]-N-methylethenesulfonamide] | 0.872 nM | 2.82 nM | 120 nM
8 | C=CC(=O)N1CCC[C@H]1COc1cnccc1-c1[nH]c2cccnc2c1-c1ccccc1Cl [Example 88, 1-{(2S)-2-[({4-[3-(2-chlorophenyl)-1H-pyrrolo[3,2-b]pyridin-2-yl]pyridin-3-yl}oxy)methyl]pyrrolidin-1-yl}prop-2-en-1-one] | 1.89 nM | 10.7 nM | 166 nM
9 | C=CS(=O)(=O)N(C)CCOc1cnccc1-c1[nH]c2cccnc2c1-c1cc(Cl)ccc1Cl [Example 71, N-[2-({4-[3-(2,5-dichlorophenyl)-1H-pyrrolo[3,2-b]pyridin-2-yl]pyridin-3-yl}oxy)ethyl]-N-methylethenesulfonamide] | 5.37 nM | 8.59 nM | 404 nM
10 | C=CC(=O)N(C)CCOc1cnccc1-c1[nH]c2cccnc2c1-c1cccc(OC)c1 [Example 54, N-[2-({4-[3-(3-methoxyphenyl)-1H-pyrrolo[3,2-b]pyridin-2-yl]pyridin-3-yl}oxy)ethyl]-N-methylprop-2-enamide] | 118 nM | 240 nM | 3960 nM
11 | C=CC(=O)N1CCOCC1COc1cnccc1-c1[nH]c2cccnc2c1-c1cc(Cl)ccc1F (stereo not drawn) [Example 151, 1-{3-[({4-[3-(5-chloro-2-fluorophenyl)-1H-pyrrolo[3,2-b]pyridin-2-yl]pyridin-3-yl}oxy)methyl]morpholin-4-yl}prop-2-en-1-one] | 11 nM | 81.1 nM | 282 nM
12 | C=CC(=O)N(C)CCOc1cnccc1-c1[nH]c2cccnc2c1-c1cc(Cl)ccc1Cl [Example 57, N-[2-({4-[3-(2,5-dichlorophenyl)-1H-pyrrolo[3,2-b]pyridin-2-yl]pyridin-3-yl}oxy)ethyl]-N-methylprop-2-enamide] | 156 nM | 450 nM | 4590 nM
13 | C=CS(=O)(=O)N(C)CCOc1cnccc1-c1[nH]c2cccnc2c1-c1cc(Cl)ccc1F [Example 60, N-[2-({4-[3-(5-chloro-2-fluorophenyl)-1H-pyrrolo[3,2-b]pyridin-2-yl]pyridin-3-yl}oxy)ethyl]-N-methylethenesulfonamide] | 0.809 nM | 2.02 nM | 154 nM
14 | C=CC(=O)N1C[C@@H](C)C[C@H]1COc1cnccc1-c1[nH]c2cccnc2c1-c1ccccc1 [Example 110, 1-[(2S,4S)-4-methyl-2-({[4-(3-phenyl-1H-pyrrolo[3,2-b]pyridin-2-yl)pyridin-3-yl]oxy}methyl)pyrrolidin-1-yl]prop-2-en-1-one] | 1.27 nM | 5.97 nM | 37.5 nM
15 | C=CC(=O)N1CCC[C@H]1COc1cnccc1-c1[nH]c2cccnc2c1-c1ccc2ccccc2c1 [Example 80, 1-{(2S)-2-[({4-[3-(naphthalen-2-yl)-1H-pyrrolo[3,2-b]pyridin-2-yl]pyridin-3-yl}oxy)methyl]pyrrolidin-1-yl}prop-2-en-1-one] | 0.583 nM | 1.86 nM | 162 nM
16 | Cn1ccc(C#CC(=O)N2CCC[C@H]2COc2cnccc2-c2[nH]c3cccnc3c2-c2ccccc2)n1 [Example 95, 3-(1-methyl-1H-pyrazol-3-yl)-1-[(2S)-2-({[4-(3-phenyl-1H-pyrrolo[3,2-b]pyridin-2-yl)pyridin-3-yl]oxy}methyl)pyrrolidin-1-yl]prop-2-yn-1-one] | 71.2 nM | 246 nM | 682 nM
17 | C=CC(=O)N1CCC[C@H]1COc1cnccc1-c1[nH]c2cccnc2c1-c1ccc(F)c(OC(F)(F)F)c1 [Example 106, 1-[(2S)-2-{[(4-{3-[4-fluoro-3-(trifluoromethoxy)phenyl]-1H-pyrrolo[3,2-b]pyridin-2-yl}pyridin-3-yl)oxy]methyl}pyrrolidin-1-yl]prop-2-en-1-one] | 13.3 nM | 77.4 nM | 1630 nM
